Test system: Botrytis cinerea
Assay: Activity against gray mold on bell-pepper leaves caused by Botrytis cinerea, protective application
Format: in vivo
Details: 250 ppm, protective spray on bell-pepper seedlings cv. Neusiedler Ideal Elite, inoculated next day, assessed visually after 5 days; untreated plants 90% infected
Experimental: The active compounds were prepared as a stock solution with 25 mg of active compound which was made up to 10 ml using a mixture of acetone and/or DMSO and the emulsifier Uniperol® EL (wetting agent having emulsifying and dispersing action based on ethoxylated alkylphenols) in a volume ratio of solvent/emulsifier of 99 to 1. The mixture was then made up with water to 100 ml. This stock solution was diluted with the solvent/emulsifier/water mixture described to the concentration of active compound stated below. Bell-pepper seedlings of the cultivar “Neusiedler Ideal Elite” were, after 2 to 3 leaves were well developed, sprayed to runoff point with an aqueous suspension having the concentration of active compound stated below. The next day, the treated plants inoculated with a spore suspension of Botrytis cinerea, which contained 1.7×10^6 spores/ml in a 2% aqueous biomalt solution. The test plants were then placed in a dark climatized chamber at 22 to 24° C. and high atmospheric humidity. After 5 days, the extent of the fungal infection on the leaves could be determined visually in %.

SMILES | fungal infection on the leaves
CC1CCCCN1c1c(-c2c(F)ccc(F)c2F)c(C#N)nc2ncnn12 (stereo not drawn) [I-1, 5-cyano-6-(2,3,6-trifluorophenyl)-7-(2-methylpiperidinyl)-1,2,4-triazolo[1,5a]pyrimidine] | no infection
COc1nc2ncnn2c(NC2CCCC2)c1-c1c(F)ccc(F)c1F [I-2, 5-methoxy-6-(2,3,6-trifluorophenyl)-7-cyclopentylamino-1,2,4-triazolo[1,5a]pyrimidine] | no infection
Cc1nc2ncnn2c(N2CCCCC2C)c1-c1c(F)ccc(F)c1F (stereo not drawn) [I-3, 5-methyl-6-(2,3,6-trifluorophenyl)-7-(2-methylpiperidinyl)-1,2,4-triazolo[1,5a]pyrimidine] | no infection
